# Assay results published in US20260286420A1, “REAGENT, KIT, METHOD FOR DETECTING ADP, AND USE THEREOF” (Neubo Apptech Co., Ltd., priority 2025, published 2026).
# Assay: ATP-removal effect of ATPS and pyrophosphatase, luciferase readout
# Type: biochemical
# Conditions: 100 μM ATP, 40 min at room temperature
# Description: The ATP-removal effect of the reagent in Example 1 was verified.
# ATP sulfurylase was prepared in the following buffer: 50 mM Tris-HCl buffer (pH 7.4)+10 mM MgCl2+20 mM Na2MoO4, where the concentration of each component is the final concentration in the resultant solution.
# Reagent for ADP detection: 50 mM Tris-HCl buffer (pH 7.4)+20 mM MgSO4+50 mM KCl+2 mM EDTA+2 mM EGTA+0.1 mM D-luciferin+0.1 mM PEP-K (phosphoenolpyruvate monopotassium salt)+50 μg/mL luciferase+20 U/mL a pyruvate kinase, where the concentration of each component is the final concentration in the resultant solution.
# The bioluminescence detection instrument was an EnVision (Perkin Elmer).
# Next, 25 μL of ATP ([…]) was added to each well of a 96-well white opaque assay plate, followed by the addition of 25 μL of pyrophosphatase (PPA: 10 U/mL) and ATP sulfurylase (ATPS) at concentrations of 2 μg/mL, 1 μg/mL, and 0.5 μg/mL.
# After incubation at room temperature (22° C.-25° C.) for 40 minutes, 50 μL of the reagent for ADP detection was added and mixed uniformly, and the fluorescence values were read after incubation was performed at room temperature for 10 minutes.
# After 1 μM ATP+0.1 mM D-luciferin+50 μg/mL luciferase+50 mM Tris-HCl buffer (pH 7.4)+20 mM MgSO4 were incubated at room temperature for 10 minutes, the fluorescence value read was 439,640.
# After 0.1 μM ATP+0.1 mM D-luciferin+50 μg/mL luciferase+50 mM Tris-HCl buffer (pH 7.4)+20 mM MgSO4 were incubated at room temperature for 10 minutes, the fluorescence value read was 47,720.
# The remaining ATP after the action of ATPS and PPA was determined by comparing with the fluorescence values under conditions of ATP at 1 μM and 0.1 μM (see Table 2). It can be seen that the remaining ATP of 100 μM ATP under the action of ATPS (1 μg/mL) and pyrophosphatase was about 0.006%.
substance,measurement,setting,value
ATPS,Luminescence (RLU),ATPS 0.5 μg/mL + PPA 10 U/mL,3.44E+03 RLU
same,Remaining ATP (%),ATPS 0.5 μg/mL + PPA 10 U/mL,0.0072%
same,Luminescence (RLU),ATPS 1 μg/mL + PPA 10 U/mL,2.88E+03 RLU
same,Luminescence (RLU),ATPS 2 μg/mL + PPA 10 U/mL,2.24E+03 RLU
same,Remaining ATP (%),ATPS 2 μg/mL + PPA 10 U/mL,0.0047%
